Legend:
[1] = test system: Puccinia recondita f. sp. tritici; test: Puccinia recondita f. sp. tritici / wheat / leaf disc curative (brown rust); assay type: in vivo; conditions: foliar, wheat leaf segments cv Kanzler, 200 ppm applied 1 day after inoculation, assessed 6-8 days after application
Procedure: Puccinia recondita f. sp. tritici/Wheat/Leaf Disc Curative (Brown Rust): Wheat leaf segments cv Kanzler were placed on agar in 24-well plates. The leaf segments were inoculated with a spore suspension of the fungus. The plates were stored in darkness at 19° C. and 75% relative humidity. The formulated test compound diluted in water was applied at an application rate of 200 ppm 1 day after inoculation. […]-2.508; 5.561; 2.561; E/E-2.208; 2.513; 2.559; 2.556; 2.555; 2.374; 2.552; 2.537; 2.519; 2.516; 2.514; […].002; 2.512; E/E-2.507

Pyrenophora teres = Pyrenophora teres / barley / leaf disc preventative (net blotch); assay type: in vivo; conditions: foliar, barley leaf segments cv Hasso, inoculated two days after application, assessed 5-7 days after application
Procedure: Pyrenophora teres/Barley/Leaf Disc Preventative (Net Blotch): Barley leaf segments cv Hasso are placed on agar in a 24-well plate and sprayed with formulated test compound diluted in water at an application rate of 200 ppm. The leaf segments are inoculated with a spore suspension of the fungus two days after application of the test solution. The inoculated leaf segments are incubated at 20° C. and 65% relative humidity under a light regime of 12/12 h (light/dark) in a climate cabinet and the activity of a compound is assessed as disease control compared to untreated when an appropriate level of disease damage appears in untreated check leaf segments (5-7 days after application). […]-2.507; 5.561; 2.561; E/E-2.208; P.57; 2.513; 2.559; 2.558; 2.556; 2.555; 2.374; 2.552; 2.544; 2.537; 2.533; 2.530; 2.528; 2.519; 2.510; 2.516; 2.514; E/E-5.167; E/E-3.002; 2.512

[2] = test system: Monographella nivalis (Microdochium nivale); test: Monographella nivalis (Microdochium nivale) / liquid culture (foot rot cereals); assay type: cell-based; conditions: at ≦200 ppm, liquid culture PDB, inhibition of growth photometrically 4-5 days after application, read-out: control of Monographella nivalis
Procedure, shortened: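 Microdochium nivale conidia in potato dextrose broth added to compound delivered in DMSO, then incubated at 24 °C. Growth inhibition measured photometrically 4-5 days after application.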

[3] = test system: Blumeria graminis f. sp. tritici (Erysiphe graminis f. sp. tritici); test: Blumeria graminis f. sp. tritici / wheat / leaf disc preventative (powdery mildew on wheat); assay type: in vivo; conditions: foliar, wheat leaf segments cv. Kanzler, inoculated 1 day after application, assessed 6-8 days after application
Procedure, shortened: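 Wheat cv. Kanzler leaf segments on agar sprayed with formulated compound at 200 ppm, inoculated 1 day later with powdery mildew, incubated at 20° C, 60% RH (24 h dark then 12 h/12 h). Percent disease control versus untreated scored 6-8 days after application.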

COc1cccc(/C(C)=N/OCC(C)(C)CO/N=C2\CCCc3ccc(C)nc32)n1 [Compound 2.374]
≥ 80%: pest or weed control at 200 ppm [1] | pest or weed control at 200 ppm (Pyrenophora teres) | inhibition of growth at up to 200 µg/mL [2] | pest or weed control at 200 ppm [3]

C/C(=N\OCC(C)(C)CO/N=C1\CCCc2ccc(C)nc21)c1ccc2ccccc2n1 [Compound 2.512]
≥ 80%: pest or weed control at 200 ppm [1] | pest or weed control at 200 ppm (Pyrenophora teres) | inhibition of growth at up to 200 µg/mL [2] | pest or weed control at 200 ppm [3]

C/C(=N\OCC(C)(C)CO/N=C1\CCCc2ccc(C)nc21)c1ccc2c(n1)CCCC2 [Compound 2.513]
≥ 80%: pest or weed control at 200 ppm [1] | pest or weed control at 200 ppm (Pyrenophora teres) | inhibition of growth at up to 200 µg/mL [2] | pest or weed control at 200 ppm [3]

C/C(=N\OCCCO/N=C1\CCCc2ccc(C)nc21)c1cccc(-c2ccccc2)n1 [Compound 2.514]
≥ 80%: pest or weed control at 200 ppm [1] | pest or weed control at 200 ppm (Pyrenophora teres) | inhibition of growth at up to 200 µg/mL [2] | pest or weed control at 200 ppm [3]

CC/C(=N\OCC(C)(C)CO/N=C1\CCCc2ccc(C)nc21)c1ccccn1 [Compound 2.516]
≥ 80%: pest or weed control at 200 ppm [1] | pest or weed control at 200 ppm (Pyrenophora teres) | inhibition of growth at up to 200 µg/mL [2] | pest or weed control at 200 ppm [3]

C/C(=N/OCC(C)(C)CO/N=C1\CCCc2ccc(C)nc21)c1ccccn1 [Compound 2.519]
≥ 80%: pest or weed control at 200 ppm [1] | pest or weed control at 200 ppm (Pyrenophora teres) | inhibition of growth at up to 200 µg/mL [2] | pest or weed control at 200 ppm [3]

Cc1ccc2c(n1)/C(=N/OCC(C)(C)CO/N=C/c1cccc(Oc3ccccc3)n1)CCC2 [Compound 2.530]
≥ 80%: pest or weed control at 200 ppm (Pyrenophora teres) | inhibition of growth at up to 200 µg/mL [2] | pest or weed control at 200 ppm [3]

Cc1ccc(O)c(/C=N/OCC(C)(C)CO/N=C2\CCCc3ccc(C)nc32)n1 [Compound 2.533]
≥ 80%: pest or weed control at 200 ppm (Pyrenophora teres) | inhibition of growth at up to 200 µg/mL [2] | pest or weed control at 200 ppm [3]

C/C(=N\OCC(C)(C)CO/N=C1\CCCc2ccc(Cl)nc21)c1cc(C)cc(C)n1 [Compound 2.555]
≥ 80%: pest or weed control at 200 ppm [1] | pest or weed control at 200 ppm (Pyrenophora teres) | inhibition of growth at up to 200 µg/mL [2] | pest or weed control at 200 ppm [3]

C/C(=N\OCC(C)(C)CO/N=C1\CCCc2ccc(Oc3ccccc3)nc21)c1cc(C)cc(C)n1 [Compound 2.556]
≥ 80%: pest or weed control at 200 ppm [1] | pest or weed control at 200 ppm (Pyrenophora teres) | inhibition of growth at up to 200 µg/mL [2] | pest or weed control at 200 ppm [3]

C/C(=N\OCC(C)(C)CO/N=C1\CCCc2ccc(-c3cccc(C)n3)nc21)c1cc(C)cc(C)n1 [Compound 2.559]
≥ 80%: pest or weed control at 200 ppm [1] | pest or weed control at 200 ppm (Pyrenophora teres) | inhibition of growth at up to 200 µg/mL [2] | pest or weed control at 200 ppm [3]

C/C(=N\OCC(C)(C)CO/N=C1\CCCc2c1nc1ccccc1c2C)c1cc(C)cc(C)n1 [Compound 2.561]
≥ 80%: pest or weed control at 200 ppm [1] | pest or weed control at 200 ppm (Pyrenophora teres) | pest or weed control at 200 ppm [3]

C/C(=N\OCC1(CO/N=C2\CCCc3c2nc2ccccc2c3C)CC1)c1cc(C)cc(C)n1 [Compound 5.561]
≥ 80%: pest or weed control at 200 ppm [1] | pest or weed control at 200 ppm (Pyrenophora teres) | pest or weed control at 200 ppm [3]

C/C(=N\OCC(C)(C)CO/N=C1\CCCc2ccc(C)nc21)c1cccc(C)n1 [E/E-2.002]
≥ 80%: pest or weed control at 200 ppm [1] | pest or weed control at 200 ppm (Pyrenophora teres) | inhibition of growth at up to 200 µg/mL [2] | pest or weed control at 200 ppm [3]

C/C(=N\OCC(C)(C)CO/N=C1\CCCc2ccc(C)nc21)c1cc(C)cc(C)n1 [E/E-2.168]
≥ 80%: pest or weed control at 200 ppm [1] | pest or weed control at 200 ppm (Pyrenophora teres) | inhibition of growth at up to 200 µg/mL [2] | pest or weed control at 200 ppm [3]

Cc1cccc(/C(=N/OCC(C)(C)CO/N=C2\CCCc3ccc(C)nc32)c2ccccc2)n1 [E/E-2.474]
≥ 80%: pest or weed control at 200 ppm [1] | pest or weed control at 200 ppm (Pyrenophora teres) | inhibition of growth at up to 200 µg/mL [2] | pest or weed control at 200 ppm [3]

Cc1ccc2c(n1)/C(=N/OCC(C)(C)CO/N=C/c1ccc3ccccc3n1)CCC2 [E/E-2.507]
≥ 80%: pest or weed control at 200 ppm [1] | pest or weed control at 200 ppm (Pyrenophora teres) | inhibition of growth at up to 200 µg/mL [2]

C/C(=N\OCC(C)(C)CO/N=C1\CCCc2ccc(C)nc21)c1cccc(Br)n1 [E/E-2.508]
≥ 80%: pest or weed control at 200 ppm [1] | inhibition of growth at up to 200 µg/mL [2]

C=C(CO/N=C(\C)c1cccc(C)n1)CO/N=C1\CCCc2ccc(C)nc21 [E/E-3.002]
≥ 80%: pest or weed control at 200 ppm [1] | pest or weed control at 200 ppm (Pyrenophora teres) | pest or weed control at 200 ppm [3]

C/C(=N\OCC1(CO/N=C2\CCCc3ccc(C)nc32)CC1)c1cc(C)cc(C)n1 [E/E-5.167]
≥ 80%: pest or weed control at 200 ppm [1] | pest or weed control at 200 ppm (Pyrenophora teres) | inhibition of growth at up to 200 µg/mL [2] | pest or weed control at 200 ppm [3]

From patent US20130102631A1, “NOVEL MICROBIOCIDAL DIOXIME ETHER DERIVATIVES” (SYNGENTA CROP PROTECTION LLC, priority 2010, published 2013)
